This passage reports inhibition and viability results from ChEMBL document CHEMBL2396625 (Bioorg Med Chem Lett, 2013).

Series [1] concerns the target Protein tyrosine phosphatase type IVA 3 (Homo sapiens, UniProt O75365). Description: Inhibition of human His6-tagged full length PRL3 assessed as inhibition of DiFMUP dephosphorylation at 5 ug/ml relative to control.
Series [2] in a line: Cytotoxicity against human DLD1 cells overexpressing PRL3 assessed as cell viability at 10 ug/ml after 24 hrs by WST-1 assay relative to control. The series is classed as cell-based. Particulars: DLD-1 cells overexpressing PRL3, read-out: Activity. In general terms: Tetrazolium assays rely on reduction of a dye to a coloured formazan, in cell work by metabolically active cells.

A further series concerns DLD-1. Description: Antimigratory activity against human DLD1 cells overexpressing PRL3 at 10 ug/ml after 20 hrs by crystal violet staining-based light microscopic analysis relative to control. The series is classed as functional. The settings on record: DLD-1, 20 h.

Each structure is given as a SMILES string.

Protein tyrosine phosphatase type IVA 3, sequence (O75365 whole entry): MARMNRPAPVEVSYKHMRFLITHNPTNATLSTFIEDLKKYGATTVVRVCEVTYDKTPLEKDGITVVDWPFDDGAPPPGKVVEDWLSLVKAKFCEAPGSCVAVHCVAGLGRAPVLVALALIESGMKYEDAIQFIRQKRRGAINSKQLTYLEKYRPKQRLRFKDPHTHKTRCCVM

As for `O=C1NC(=S)S/C1=C\C=C\c1ccccc1OCc1ccccc1C(F)(F)F`, the inhibition (in general, the share of the control response that was lost under treatment) in series [1] is 40.8%. In addition, the viability at 24 h, 10 ug/ml in series [2] was found to be 41.5%. The inhibition at 10 µg/mL with DLD-1 is 80%.
As to `O=C1NC(=S)S/C1=C\C=C\c1ccccc1NC(=O)c1ccccc1`, the inhibition in series [1] worked out at 35.2%. The viability at 24 h, 10 ug/ml in series [2] stood at 97.1%. The inhibition at 10 µg/mL in the series with DLD-1 stood at 68%.
Take `O=C1NC(=S)S/C1=C\C=C\c1ccccc1OCc1ccncc1`: the inhibition in series [1] was 39.4%. In series [2], the viability at 24 h, 10 ug/ml amounted to 96.5%. In the series on DLD-1, this compound registered an inhibition at 10 µg/mL of 62%.
The like results for `O=C1NC(=O)/C(=C/C=C/c2ccccc2OCc2ccccc2Br)S1` were, in that order, 22.5%, 37.7% and 50%.
`COc1ccccc1/C=C/C=C1\SC(=S)NC1=O`: in series [1], the inhibition stood at 41.7%. The viability at 24 h, 10 ug/ml in series [2] worked out at 98.8%. At 10 µg/mL the inhibition with DLD-1 was 69%.
The like results for `O=C1NC(=S)S/C1=C\C=C\c1ccccc1Cl` were, in that order, 53.9%, 81.9% and 80%.
The matching figures for `O=C1NC(=S)S/C1=C\C=C\c1ccccc1`: 37.4%, 96.6% and 81%.
The matching figures for `O=C1NC(=S)S/C1=C\C=C\c1cc(Br)ccc1OCc1ccccc1Br`: 40.3%, 72.3% and 71%.
`O=C1NC(=S)S/C1=C\C=C\c1ccccc1OS(=O)(=O)c1ccccc1`: the inhibition in series [1] turned out to be 64.2%. For the same compound, the viability at 24 h, 10 ug/ml in series [2] was 83.1%. In the series on DLD-1, this compound returned an inhibition at 10 µg/mL of 80%.
The matching figures for `O=C1NC(=S)S/C1=C\C=C\c1ccccc1OC(=O)c1ccccc1`: 30.6%, 99.2% and 40%.
The matching figures for `O=C1NC(=S)S/C1=C\C=C\c1ccccc1O`: 51.9%, 96.3% and 65%.
On to `COc1cccc(COc2ccccc2/C=C/C=C2\SC(=S)NC2=O)c1`, for which the inhibition in series [1] stood at 52.9%. The viability at 24 h, 10 ug/ml in series [2] was determined as 87.1%. Besides, in the series on DLD-1, 10 µg/mL produced 82% inhibition.
The like results for `O=C1NC(=S)S/C1=C\C=C\c1ccccc1OCc1ccccc1` were, in that order, 49.5%, 87.9% and 65%.
As for `O=C1NC(=S)S/C1=C\C=C\c1ccccc1OCc1ccccc1Br`, in series [1], the inhibition came out at 63.1%. The viability at 24 h, 10 ug/ml in series [2] amounted to 78.8%. Also, in the series with DLD-1, the inhibition at 10 µg/mL was determined as 78%.
The matching figures for `Cc1ccccc1COc1ccccc1/C=C/C=C1\SC(=S)NC1=O`: 52.8%, 75.5% and 73%.
The matching figures for `O=C1NC(=S)S/C1=C\C=C\c1cccnc1`: 47.1%, 105% and 45%.
